# Results as given in ChEMBL document CHEMBL1201862, “PubChem BioAssay data set” (2004).
#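 Results reflect a 48-hour exposure of cells in 96-well plates to compound at five concentrations. At the GI50, growth is halved.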 Active and inactive are the calls of the source. Rule as the data show it: active = GI50 up to about 1.1 µM and inactive = higher.
# Key:
# Test in all cases: growth of human tumour cells (NCI), 48 h
# [1] = system: HCC 2998
# [2] = system: OVCAR-3
# [3] = system: LOX IMVI
# [4] = system: M14
# [5] = system: SF-539
# [6] = system: ACHN
# [7] = system: NCI-H23
# [8] = system: Malme-3M
# [9] = system: SF-268
# [10] = system: RXF 393
# [11] = system: SR
# [12] = system: HL-60
# [13] = system: U-251
# [14] = system: NCI-H460
# [15] = system: SNB-75
# [16] = system: A498
SMILES,GI50 [1],GI50 [2],GI50 [3],GI50 [4],GI50 [5],GI50 [6],GI50 [7],GI50 [8],GI50 [9],GI50 [10],GI50 [11],GI50 [12],GI50 [13],GI50 [14],GI50 [15],GI50 [16]
Cc1cc(C)c(-c2noc(-c3ccc(Cl)cc3)c2C2=NCCCN2)c(C)c1,15.1 µM (inactive),28 µM (inactive),16.2 µM (inactive),2.47 µM (inactive),14.1 µM (inactive),17.6 µM (inactive),17.9 µM (inactive),19.4 µM (inactive),11.3 µM (inactive),7.1 µM (inactive),26.5 µM (inactive),13.2 µM (inactive),7.57 µM (inactive),11.7 µM (inactive),,
CC(C)(C)c1cc(C(O)(C(F)(F)F)C(F)(F)F)c2c(c1)C(C(F)(F)F)(C(F)(F)F)OC(C)(C(C)(C)C)N2 (stereo unspecified),6.56 µM (inactive),0.776 µM (active),,0.653 µM (active),3.55 µM (inactive),3.06 µM (inactive),2 µM (inactive),6.65 µM (inactive),,4.43 µM (inactive),2.82 µM (inactive),,2.69 µM (inactive),2.48 µM (inactive),2 µM (inactive),
O=C1CCCCCCC2=C1C(Sc1ccccc1)CC2 (stereo unspecified),,,15.8 µM (inactive),45.9 µM (inactive),,36.1 µM (inactive),33.9 µM (inactive),> 100 µM (inactive),19.9 µM (inactive),18.9 µM (inactive),18.2 µM (inactive),12.8 µM (inactive),37.1 µM (inactive),27.2 µM (inactive),21.1 µM (inactive),
CC(=O)Nc1ccccc1S(=O)(=O)c1ccccc1,> 100 µM (inactive),> 100 µM (inactive),> 100 µM (inactive),> 100 µM (inactive),> 100 µM (inactive),> 100 µM (inactive),> 100 µM (inactive),> 100 µM (inactive),> 100 µM (inactive),> 100 µM (inactive),,> 100 µM (inactive),> 100 µM (inactive),> 100 µM (inactive),> 100 µM (inactive),> 100 µM (inactive)
Cc1ccc(NC(=O)C2C(=O)N(c3ccc(C)cc3)C(=O)/C2=N\NC(N)=S)cc1 (stereo unspecified),> 100 µM (inactive),> 100 µM (inactive),> 100 µM (inactive),> 100 µM (inactive),> 100 µM (inactive),> 100 µM (inactive),> 100 µM (inactive),> 100 µM (inactive),> 100 µM (inactive),> 100 µM (inactive),,,> 100 µM (inactive),> 100 µM (inactive),> 100 µM (inactive),> 100 µM (inactive)
CCCCCCCCCCCCC(Br)C(=O)SCCNC(=O)CCNC(=O)[C@@H](O)C(C)(C)COP(=O)(O)OP(=O)(O)OCC1OC(n2cnc3c(N)ncnc32)C(O)C1OP(=O)(O)O (stereo partly specified),> 56.5 µM (inactive),> 56.5 µM (inactive),28.1 µM (inactive),> 56.5 µM (inactive),> 56.5 µM (inactive),> 56.5 µM (inactive),> 56.5 µM (inactive),> 56.5 µM (inactive),> 56.5 µM (inactive),> 56.5 µM (inactive),,> 56.5 µM (inactive),33.7 µM (inactive),22.5 µM (inactive),> 56.5 µM (inactive),> 56.5 µM (inactive)
CC12CO[C@@](C)(CC(S(=O)(=O)c3ccccc3)C1)O2 (stereo partly specified),> 100 µM (inactive),> 100 µM (inactive),,> 100 µM (inactive),> 100 µM (inactive),> 100 µM (inactive),> 100 µM (inactive),> 100 µM (inactive),> 100 µM (inactive),> 100 µM (inactive),> 100 µM (inactive),> 100 µM (inactive),> 100 µM (inactive),> 100 µM (inactive),37 µM (inactive),
